Data taken from publication PMC10447463, “Data-mining unveils structure–property–activity correlation of viral infectivity enhancing self-assembling peptides” (Nature Communications, 2023).
Where two headings read alike, the source gives them in different places.

Assays:
[1] = format: physicochemical; details: for ThT Cat. / ThT-Fluorescence (categorical): ThT-active if fluorescence at least twice the control
Method in brief: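 Fibrils (1 mg/mL solution) were mixed with 50 µM ThT in PBS for 15 min at RT, and fluorescence was read at λex 440/λem 488 nm against a PBS blank, as a triplicate mean ± SD. Zeta potential came from electrophoretic mobility (Smoluchowski) after 1 d aggregation at 1 mg/mL in PBS pH 7.4, diluted into 1 mM KCl.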

[2] = format: physicochemical; set-up: key to Fibril / Fibril Formation / TEM 2cat / Fibril: 1 = fibrils present; 0 non-fibrillar structures; details: for Fibril / Fibril / Fibril Formation: TEM; for Fibril / Fibril Formation: 1 mg/mL, uranyl acetate stain, qualitative
[3] = FigS12 panel A, fibril category by TEM
[4] = 1 = fibrils present, 0 = non-fibrillar
[5] = 1 = fibrils present, 0 = non-fibrillar structures
[6] = ThT fluorescence category, 1 if Rel. ThT >2
[7] = category: fibrils present or non-fibrillar

Substance | Tht category (> 2 to blank = +) ([1]; Fig S10 panel D) | Tht category (> 2 to blank = +) ([1]; FigS12 panel A) | ThT Cat, ([1]; FigS12 panel B) | ThT Cat, ([1]; ThT category, 1 if Rel. ThT >2) | ThT Cat. ([1]; ThT category, 1 if Rel. ThT >2) | ThT Cat. / ThT-Fluorescence (categorical) [1] | TEM 2cat ([2]; Fig S10 panel D) | TEM 2cat [2, 3] | Fibril ([2]; FigS12 panel B) | Fibril / Fibril Formation [2] | Fibril [2, 4] | Fibril [2, 5] | ThT Cat. [1, 6] | TEM 2cat [2, 7]
FKFDKFKFDK | 0 (ThT-inactive (N-Fold <2)) | 0 (ThT-inactive (N-Fold <2)) | 0 (ThT-inactive (N-Fold <2)) | 0 (ThT-inactive (N-Fold <2)) | 0 (ThT-inactive (N-Fold <2)) | 0 (ThT-inactive (N-Fold <2)) | 0 | 0 | 0 | 0 | 0 | 0 | – | –
KYKYQY | 1 (ThT. Cat is 1, if Rel. ThT >2) | 1 (ThT. Cat is 1, if Rel. ThT >2) | 1 (ThT. Cat is 1, if Rel. ThT >2) | 1 (ThT. Cat is 1, if Rel. ThT >2) | – | 1 (ThT. Cat is 1, if Rel. ThT >2) | 0 | 0 | 0 | 0 | 0 | 0 | 1 (ThT. Cat is 1, if Rel. ThT >2) | –
KIKIQINAWQ | 1 (ThT. Cat is 1, if Rel. ThT >2) | – | – | 1 (ThT. Cat is 1, if Rel. ThT >2) | – | 1 (ThT. Cat is 1, if Rel. ThT >2) | 1 | – | – | 1 | 1 | 1 | 1 (ThT. Cat is 1, if Rel. ThT >2) | 1
QCKIKQII | 1 (ThT. Cat is 1, if Rel. ThT >2) | 1 (ThT. Cat is 1, if Rel. ThT >2) | 1 (ThT. Cat is 1, if Rel. ThT >2) | 1 (ThT. Cat is 1, if Rel. ThT >2) | 1 (ThT. Cat is 1, if Rel. ThT >2) | 1 (ThT. Cat is 1, if Rel. ThT >2) | 1 | 1 | 1 | 1 | 1 | 1 | – | –
HGEHGE | 0 (ThT-inactive (N-Fold <2)) | 0 (ThT-inactive (N-Fold <2)) | 0 (ThT-inactive (N-Fold <2)) | 0 (ThT-inactive (N-Fold <2)) | 0 (ThT-inactive (N-Fold <2)) | 0 (ThT-inactive (N-Fold <2)) | 0 | 0 | 0 | 0 | 0 | 0 | – | –
KYKGAIIGNIK | 0 (ThT-inactive (N-Fold <2)) | 0 (ThT-inactive (N-Fold <2)) | 0 (ThT-inactive (N-Fold <2)) | 0 (ThT-inactive (N-Fold <2)) | 0 (ThT-inactive (N-Fold <2)) | 0 (ThT-inactive (N-Fold <2)) | 0 | 0 | 0 | 0 | 0 | 0 | – | –
CKWKWQW | 0 (ThT-inactive (N-Fold <2)) | – | – | 0 (ThT-inactive (N-Fold <2)) | – | 0 (ThT-inactive (N-Fold <2)) | 1 | – | – | 1 | 1 | 1 | 0 (ThT-inactive (N-Fold <2)) | 1
KKFQKKFQ | 0 (ThT-inactive (N-Fold <2)) | 0 (ThT-inactive (N-Fold <2)) | 0 (ThT-inactive (N-Fold <2)) | 0 (ThT-inactive (N-Fold <2)) | 0 (ThT-inactive (N-Fold <2)) | 0 (ThT-inactive (N-Fold <2)) | 0 | 0 | 0 | 0 | 0 | 0 | – | –
KAKQAANMWQ | 0 (ThT-inactive (N-Fold <2)) | 0 (ThT-inactive (N-Fold <2)) | 0 (ThT-inactive (N-Fold <2)) | 0 (ThT-inactive (N-Fold <2)) | 0 (ThT-inactive (N-Fold <2)) | 0 (ThT-inactive (N-Fold <2)) | 0 | 0 | 0 | 0 | 0 | 0 | – | –
FDPFDPFDP | 0 (ThT-inactive (N-Fold <2)) | 0 (ThT-inactive (N-Fold <2)) | 0 (ThT-inactive (N-Fold <2)) | 0 (ThT-inactive (N-Fold <2)) | 0 (ThT-inactive (N-Fold <2)) | 0 (ThT-inactive (N-Fold <2)) | 0 | 0 | 0 | 0 | 0 | 0 | – | –
